Assay results as given in patent US8753604B2, “Methods and compositions for synaphically-targeted treatment for cancer” (Sanford-Burnham Medical Research Institute, priority 2008, dated 2014).
Bridges are numbered along the chain shown (N, C = ends). Where no end group is shown, it is not given here. The star is where a group is joined. FITC = O=C1OC2(c3ccc(O)cc3Oc3cc(O)ccc32)c2ccc(NC(=S)*)cc21

Columns and labels:
MDA-MB-435 cells = assay: FACS analysis of FITC-peptide binding to siRNA-transfected MDA-MB-435 cells; type: cell-based, human; conditions: 10 μM FITC peptide, 1 h at 4° C.
Procedure: MDA-MB-435 cells were transiently transfected with gC1qR/p32-specific or control siRNAs. […] The amount of fluorescence in living cells was analyzed by FACS. Cells incubated in the absence of peptide served as FITC negative control. Compared to control siRNA transfected cells, down-regulation of gC1qR/p32 expression (in the presence of gC1qR/p32 siRNA) caused a shift in the peak of Lyp-1 fluorescence but not control peptide fluorescence.
Cultured cells were detached with cell enzyme-free dissociation buffer (Gibco/Invitrogen) and collected in PBS containing 1% BSA (PBSB). Single cells suspensions from tumors were obtained as indicated above. For FACS staining, 2.5×10^5 cells were resuspended in 100 μl of PBSB and incubated with polyclonal anti-full-length gC1qR/p32 or rabbit IgG (20 μg/ml) in PBSB for 30 min at 4° C. The cells were washed in PBSB and stained with goat anti rabbit Alexa 488 (2.5 μg/ml) for 30 min at 4° C. For FACS analysis of bound FITC-peptides, cultured cells were detached as above and incubated with 10 μM of FITC-peptides in 10% FCS/DMEM for 1 hour at 4° C. After washes with PBSB, the cells were resuspended in PBS containing 2 μg/ml of propidium iodide (PI, Molecular Probes/Invitrogen) to distinguish between live and dead cells, and 10,000 cells per sample were analyzed using a BD Biosciences FACSort.

mitochondrial membranes = conditions: concentration of 10 μM; cited from earlier work
tumors [1] = assay: In vivo peptide and phage homing (iRGD); conditions: peptides 2 hrs, phage 15 min circulation
Procedure: (§1) The peptides were allowed to circulate for 2 hrs and organs were collected and viewed under UV light (left panel) or white light (right panel). […] Fluorescence in each tissue was quantified with Image J software. Statistical analysis was performed with Student's t-test. […] The circulation time for the free peptides was 2 hrs, 15 min for the peptide-displaying phage, and 3 hrs for the peptide-coupled micelles. […] Representative fields from multiple sections of each of three tumors are shown.
(§2) Synthetic peptides labeled with fluorescein (Karmali et al. (2008)) (approximately 200 μg) were intravenously injected into tumor-bearing mice and allowed to circulate for 15 min to 2 hrs. Tissues were collected and observed under UV light (Illumatool Bright Light System LT-9900) or processed for immunofluorescence (Karmali et al. (2008)). To assess phage homing (Zhang et al., (2006)), 10^9 pfu of T7 phage were intravenously injected into tumor-bearing mice, and allowed to circulate for 15 min. The mice were perfused through the heart with PBS containing 1% BSA and tissues were harvested for immunofluorescence.

PPC1 cells = assay: Phage internalization assay in PPC1 cells; type: cell-based, human
Text: Mice were maintained in accordance with institutional guidelines and the animal experiments were approved by the Animal Research Committees at University of California, Santa Barbara and San Francisco. transgenic tumor mice (Bardeesy and DePinho, (2002); Arbeit et al., Progressive squamous epithelial neoplasia in K14-human papillomavirus type 16 transgenic mice. J. Virol. 68, 4358-4368 (1994); Hanahan, Heritable formation of pancreatic β-cell tumors in transgenic mice expressing recombinant insulin/simian virus 40 oncogenes. Nature 315, 115-122 (1985)) and xenograft tumors generated by injecting BALB/c nude mice (Harlan Sprague Dawley, Indianapolis, Ind.) with 10^6 human cancer cells orthotopically, intracardiacly or into the brain and tibia were used. […] Phage homing studies in vivo and cell binding studies in vitro (Zhang et al., (2006)), immunofluorescence (Karmali et al. (2008)) and flow cytometry (Sugahara et al., Hyaluronan oligosaccharides induce CD44 cleavage and promote cell migration in CD44-expressing tumor cells. J. Biol. Chem. 278, 32259-32265 (2003)) were done as described. Whole body imaging was performed 3 hrs after injecting the Cy7-labelled micelles with the Odyssey Infrared Imaging System (LI-COR Biosciences, Lincoln, Nebr.). […] FAM-labeled peptides in tissues were quantified by measuring the fluorescence with Image J software. […]

tumors [2] = conditions: mouse, in vivo
Procedure: as §1, §2

Molecule: FITC-LyP-1: FITC conjugated LyP-1 peptide ({FITC}-CGNKRTRGC; disulfide 1-9 (inferred); not fully specified (C-terminus))
- FITC-peptide binding to cells after gC1qR/p32 siRNA versus control siRNA (MDA-MB-435 cells): reduction in the binding

Molecule: D(KLAKLAK)2
- mitochondrial swelling (mitochondrial membranes): marked mitochondrial swelling

Molecule: RGD-4C: RGD peptide (SEQ ID NO:41) with strong affinity for αv integrins (RGDCCCC; homing peptide)
- distribution within tumor (confocal microscopy) (tumors [1]): accumulated only in and around tumor blood vessels
- phage internalization within PPC1 cells (PPC1 cells): nor did they internalize

Molecule: N=C(N)NCCC[C@@H]1NC(=O)[C@@H](N)CSSC[C@@H](C(=O)O)NC(=O)[C@H](CC(=O)O)NC(=O)[C@@H]2CCCN2C(=O)CNC(=O)[C@H](CCCCN)NC(=O)[C@H](CC(=O)O)NC(=O)CNC1=O [iRGD]
- tumor homing over a control peptide (tumors [2]): 12 fold
